# Measurements from patent publication US12098139B2, “Chemokine receptor modulators and uses thereof” (RAPT Therapeutics, Inc., priority 2018, dated 2024).
# pIC50: −log10 of the molar value.
# Molecular target: T1, hCCR4 (Chem5-hCCR4 cells) (Homo sapiens, UniProt P51679)
# T1 sequence (P51679 1-360): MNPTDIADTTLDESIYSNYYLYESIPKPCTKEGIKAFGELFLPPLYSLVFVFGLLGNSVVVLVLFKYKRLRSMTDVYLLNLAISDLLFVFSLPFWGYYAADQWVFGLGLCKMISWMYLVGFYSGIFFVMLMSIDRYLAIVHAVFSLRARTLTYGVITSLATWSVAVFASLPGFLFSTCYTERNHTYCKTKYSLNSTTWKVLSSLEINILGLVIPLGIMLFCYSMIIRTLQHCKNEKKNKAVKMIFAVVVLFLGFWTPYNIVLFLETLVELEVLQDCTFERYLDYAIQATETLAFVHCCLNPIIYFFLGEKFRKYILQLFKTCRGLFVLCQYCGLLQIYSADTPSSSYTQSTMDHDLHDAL
# Experiment: Calcium flux assay (CCL22-stimulated, FLIPR Calcium 6 dye)
# Type: cell-based
# Settings: Table 3, CCL22 1.5 nM, read-out: Potency (IC50)
# Experimental: Calcium Flux Assay. Compounds were evaluated in a calcium flux assay substantially performed as follows. Chem5-hCCR4 cells (EMD Millipore, Hayward, CA; HTS009C) were cultured under standard conditions and frozen in aliquots of 10×10^6 cells/mL. The day prior to compound testing, a vial was rapidly thawed and pipetted into 20 mL media (DMEM+10% FBS+1% Pen-Strep+1% L-glutamine). Cells were harvested by centrifugation and re-suspended in fresh culture medium. 25 μL of cell suspension was seeded into 384-well plates (Corning, Tewksbury, MA; CellBind with black wall/clear bottom). The plates were centrifuged at 300 g for 10 seconds and incubated overnight at 37° C. and 5% CO2. The day of compound testing, media was removed from the plates and 25 μL serum free media was added to each well. Plates were returned to the incubator for 2 h. 25 μL assay buffer (Hank's balanced salt solution+20 mM HEPES pH 7.4) containing FLIPR Calcium 6 dye (Molecular Devices, Sunnyvale, CA; #R8191) and probenecid (2.5 mM) was added to each well and incubated at 37° C. and 5% CO2 for 2 h. Compounds in DMSO were added to the plates using an HP D300e digital dispenser, and all wells were normalized to contain 0.25 μL (0.5%) DMSO. Plates were incubated for 1 hour at 37° C. and 5% CO2. CCL22 (Peprotech; Rockyhill, NJ) was diluted in assay buffer containing 0.1% BSA to 7.5 nM (corresponding to 5×EC80 of 1.5 nM).
# Assay plates and working solution of CCL22 were transferred to the FlexStation plate reader (Molecular Devices) at 37° C. for 5 min of equilibration. Fluorescence recordings at 485 excitation/525 emission were performed at 2.5 second intervals. At t=16 seconds, 12.5 μL of CCL22 solution was added to each well and reads continued for 30 seconds at 2.5 second intervals. The minimum fluorescence (Fmin) was calculated by averaging the reads prior to ligand addition and the change in fluorescence (ΔF) was calculated by subtracting the Fmin from the average of the reads following ligand addition. The response ΔF/Fmin was plotted as a function of the compound concentration and the IC50 values were determined by non-linear regression analysis using a 4-parameter fit in either PRISM software (GraphPad; La Jolla, CA) or Dotmatics Browser.
row,pIC50,Compound
1,> 7.00,"Cc1nc(N2CC([C@H]3CCCN([C@H]4C[C@](C)(C(=O)O)C4)C3)C2)nc(N[C@H](C)c2ccc(Cl)cc2Cl)c1Cl [Example 38, (1R,3r)-3-((R)-3-(1-(5-chloro-4-(((R)-1-(2,4-dichlorophenyl)ethyl)amino)-6-methylpyrimidin-2-yl)azetidin-3-yl)piperidin-1-yl)-1-methylcyclobutane-1-carboxylic acid]"
2,> 7.00,"Cc1cnc(N2CC([C@H]3CCCN(C4CC(CO)C4)C3)C2)nc1N[C@H](C)c1ccc(Cl)cc1Cl (stereo partly drawn) [Example 18, (3-((R)-3-(1-(4-(((R)-1-(2,4-dichlorophenyl)ethyl)amino)-5-methylpyrimidin-2-yl)azetidin-3-yl)piperidin-1-yl)cyclobutyl)methanol]"
3,> 7.00,"C[C@@H](Nc1nc(N2CC([C@H]3CCCN(CCO)C3)C2)ncc1C#N)c1ccc(Cl)cc1Cl [Example 14, 4-(((R)-1-(2,4-dichlorophenyl)ethyl)amino)-2-(3-((R)-1-(2-hydroxyethyl)piperidin-3-yl)azetidin-1-yl)pyrimidine-5-carbonitrile]"
4,> 7.00,"C[C@@H](Nc1nc(N2CC([C@H]3CCCN([C@H]4C[C@@](C)(C(=O)O)C4)C3)C2)ncc1Cl)c1ccc(Cl)cc1Cl [Example 40, (1S,3s)-3-((R)-3-(1-(5-chloro-4-(((R)-1-(2,4-dichlorophenyl)ethyl)amino)pyrimidin-2-yl)azetidin-3-yl)piperidin-1-yl)-1-methylcyclobutane-1-carboxylic acid]"
5,> 7.00,"Cc1cnc(N2CC([C@H]3CCCN([C@H]4C[C@@H](C(=O)O)C4)C3)C2)nc1N[C@H](C)c1ccc(Cl)cc1Cl [Example 17, (1S,3s)-3-((R)-3-(1-(4-(((R)-1-(2,4-dichlorophenyl)ethyl)amino)-5-methylpyrimidin-2-yl)azetidin-3-yl)piperidin-1-yl)cyclobutane-1-carboxylic acid]"
6,< 6.30,"C[C@]1(C(=O)O)C[C@H](N2CCC[C@H](C3CN(c4ncc(Cl)c(NCc5ccc(Cl)cc5Cl)n4)C3)C2)C1 [Example 21, (1R,3r)-3-((R)-3-(1-(5-chloro-4-((2,4-dichlorobenzyl)amino)pyrimidin-2-yl)azetidin-3-yl)piperidin-1-yl)-1-methylcyclobutane-1-carboxylic acid]"
7,> 7.00,"C[C@@H](Nc1nc(N2CC([C@H]3CCCN([C@H]4C[C@](C)(C(=O)O)C4)C3)C2)nc(C(F)(F)F)c1Cl)c1ccc(Cl)cc1Cl [Example 37, (1R,3r)-3-((R)-3-(1-(5-chloro-4-(((R)-1-(2,4-dichlorophenyl)ethyl)amino)-6-(trifluoromethyl)pyrimidin-2-yl)azetidin-3-yl)piperidin-1-yl)-1-methylcyclobutane-1-carboxylic acid]"
8,< 6.30,"Cc1ncc(N2CC([C@H]3CCCN(CCO)C3)C2)nc1N[C@H](C)c1ccc(Cl)cc1Cl [Example 3, 2-((R)-3-(1-(6-(((R)-1-(2,4-dichlorophenyl)ethyl)amino)-5-methylpyrazin-2-yl)azetidin-3-yl)piperidin-1-yl)ethan-1-ol]"
9,< 6.30,"C[C@@H](Nc1nc(N2CC([C@H]3CCCN(CCO)C3)C2)ncc1C(F)(F)F)c1ccc(Cl)cc1Cl [Example 15, 2-((R)-3-(1-(4-(((R)-1-(2,4-dichlorophenyl)ethyl)amino)-5-(trifluoromethyl)pyrimidin-2-yl)azetidin-3-yl)piperidin-1-yl)ethan-1-ol]"
10,> 7.00,"C[C@@H](Nc1nc(N2CC([C@H]3CCCN([C@H]4C[C@@H](C(=O)O)C4)C3)C2)ncc1Cl)c1ccc(Cl)cc1Cl [Example 8, (1S,3s)-3-((R)-3-(1-(5-chloro-4-(((R)-1-(2,4-dichlorophenyl)ethyl)amino)pyrimidin-2-yl)azetidin-3-yl)piperidin-1-yl)cyclobutane-1-carboxylic acid]"
11,< 6.30,"C[C@@H](Nc1nc(N2CC([C@H]3CCCN(CCO)C3)C2)cnc1C#N)c1ccc(S(C)(=O)=O)cc1Cl [Example 7, 3-(((R)-1-(2-chloro-4-(methylsulfonyl)phenyl)ethyl)amino)-5-(3-((R)-1-(2-hydroxyethyl)piperidin-3-yl)azetidin-1-yl)pyrazine-2-carbonitrile]"

# Same assay, conditions: Table 4, CCL22 1.5 nM, read-out: Potency (IC50)
row,pIC50,Compound
1,< 6.30,"C[C@@H](Nc1cnc(C#N)c(N2CC([C@H]3CCCN(CCC(=O)O)C3)C2)n1)c1ccc(Cl)cc1Cl [Example 53, 3-(3-(1-(3-cyano-6-(((R)-1-(2,4-dichlorophenyl)ethyl)amino)pyrazin-2-yl)azetidin-3-yl)piperidin-1-yl)propanoic acid]"

# Same assay, conditions: Table 5, CCL22 1.5 nM, read-out: Potency (IC50)
row,pIC50,Compound
1,> 7.00,"C[C@@H](Nc1nc(N2CC([C@H]3CCCN([C@H]4C[C@](C)(C(=O)O)C4)C3)C2)nc2ccc(F)cc12)c1ccc(Cl)cc1Cl [Example 65, 3-[(1R,3R)-3-[1-[4-[[(1R)-1-(2,4-dichlorophenyl)ethyl]amino]-6-fluoro-quinazolin-2-yl]azetidin-3-yl]-1-piperidyl]-1-methyl-cyclobutanecarboxylic acid; 2,2,2-trifluoroacetic acid]"
2,> 7.00,"C[C@@H](Nc1nc(N2CC([C@H]3CCCN(C4CC(C)(C(=O)O)C4)C3)C2)nc2[nH]ccc12)c1ccc(Cl)cc1Cl (single isomer, unassigned) [Example 75, trifluoroacetic acid]"
3,> 7.00,"C[C@@H](Nc1nc(N2CC([C@H]3CCCN(C4CC(C)(C(=O)O)C4)C3)C2)nc2ccn(C)c12)c1ccc(Cl)cc1Cl (single isomer, unassigned) [Example 81, trifluoroacetic acid]"
4,> 7.00,"C[C@@H](Nc1nc(N2CC([C@H]3CCCN(CCO)C3)C2)nc2ccsc12)c1ccc(Cl)cc1Cl [Example 62, 2-[(3R)-3-[1-[4-[[(1R)-1-(2,4-dichlorophenyl)ethyl]amino]thieno[3,2-d]pyrimidin-2-yl]azetidin-3-yl]-1-piperidyl]ethanol; 2,2,2-trifluoroacetic acid]"
5,> 7.00,"C[C@@H](Nc1nc(N2CC(C3CCCN(C4CC(CO)C4)C3C(=O)O)C2)ncc1Cl)c1ccc(Cl)cc1Cl (stereo partly drawn) [Example 88, 3-[1-[5-chloro-4-[[(1R)-1-(2,4-dichlorophenyl)ethyl]amino]pyrimidin-2-yl]azetidin-3-yl]-1-[3-(hydroxymethyl)cyclobutyl]piperidine-2-carboxylic acid; 2,2,2-trifluoroacetic acid]"
6,> 7.00,"CC(C)C(O)c1cnc(N2CC([C@H]3CCCN([C@H]4C[C@](C)(C(=O)O)C4)C3)C2)nc1N[C@H](C)c1ccc(Cl)cc1Cl (stereo partly drawn) [Example 76, 3-[(3R)-3-[1-[4-[[(1R)-1-(2,4-dichlorophenyl)ethyl]amino]-5-(1-hydroxy-2-methyl-propyl)pyrimidin-2-yl]azetidin-3-yl]-1-piperidyl]-1-methyl-cyclobutanecarboxylic acid; 2,2,2-trifluoroacetic acid]"
7,> 7.00,"CC(O)c1cnc(N2CC([C@H]3CCCN([C@H]4C[C@](C)(C(=O)O)C4)C3)C2)nc1N[C@H](C)c1ccc(Cl)cc1Cl (stereo partly drawn) [Example 58, 3-[(3R)-3-[1-[4-[[(1R)-1-(2,4-dichlorophenyl)ethyl]amino]-5-(1-hydroxyethyl)pyrimidin-2-yl]azetidin-3-yl]-1-piperidyl]-1-methyl-cyclobutanecarboxylic acid; 2,2,2-trifluoroacetic acid]"
8,> 7.00,"CCc1cc(N[C@H](C)c2ccc(Cl)cc2Cl)nc(N2CC([C@H]3CCCN(C4CC(C)(C(=O)O)C4)C3)C2)n1 (single isomer, unassigned) [Example 92]"
9,> 7.00,"Cc1csc2nc(N3CC([C@H]4CCCN(C5CC(C)(C(=O)O)C5)C4)C3)nc(N[C@H](C)c3ccc(Cl)cc3Cl)c12 (single isomer, unassigned) [Example 74, trifluoroacetic acid]"
10,6.30 to 7.00,"C[C@@H](Nc1cc(C(F)(F)F)nc(N2CC([C@H]3CCCN([C@H]4C[C@](C)(C(=O)O)C4)C3)C2)n1)c1ccc(Cl)cc1Cl [Example 59, 3-[(1R)-3-[1-[4-[[(1R)-1-(2,4-dichlorophenyl)ethyl]amino]-6-(trifluoromethyl)pyrimidin-2-yl]azetidin-3-yl]-1-piperidyl]-1-methyl-cyclobutanecarboxylic acid]"
